# Measurements reported in paper PMC5851869 (Bioorganic & medicinal chemistry letters, 2018).
# pKd: −log10 of the molar value.
# Biological target: pa-HemO (Pseudomonas aeruginosa, UniProt O69002)
# Test: fluorescence quenching assay
# Type: binding
# Conditions: not given
row,Compound,pKd
1,O=C(O)CCN1C(=O)/C(=C\c2ccc(-c3cccc(O)c3)o2)SC1=S [compound 27],~6.00
2,O=C(O)CCN1C(=O)/C(=C/c2cccc(Nc3ccccc3)c2)SC1=S [compound 21],~6.00

# Same assay, conditions: ratio of KD values relative to inhibitor 2
row,Compound,fold improvement in potency/affinity compared to compound 2
1,COc1cccc(/C=C2\SC(=S)N(CCC(=O)O)C2=O)c1 [compound 8],~ 2 fold
2,COc1ccc(/C=C2\SC(=S)N(CCC(=O)O)C2=O)cc1 [compound 9],~ 2 fold
3,O=C(O)CCN1C(=O)/C(=C/c2ccc(Cl)cc2)SC1=S [compound 11],> 3 fold
4,O=C1/C(=C/c2ccccn2)SC(=S)N1CCc1nnn[nH]1 [compound 3],~2 fold
5,CC(C)c1ccc(/C=C2\SC(=S)N(CCC(=O)O)C2=O)cc1 [compound 13],5 fold

# System: P. aeruginosa
# Test: not given
# Type: cell-based, Pseudomonas aeruginosa
# Conditions: statement covers both MIC50 and biofilm formation assays
row,Compound,anti-bacterial effect (in words)
1,NCCN1C(=O)/C(=C/c2ccc(-c3ccccc3)cc2)SC1=S [compound 30],did not have significant antibacterial activity
2,CN(C)CCN1C(=O)/C(=C\c2ccc(-c3ccccc3)cc2)SC1=S [compound 31],did not have significant antibacterial activity
3,O=C(O)CCN1C(=O)/C(=C\c2ccc(-c3cccc(O)c3)o2)SC1=S [compound 27],poor anti-bacterial effects
4,O=C(O)CCN1C(=O)/C(=C\c2ccc(-c3ccccc3)cc2)SC1=S [compound 18],poor anti-bacterial effects
5,O=C(O)CCN1C(=O)/C(=C/c2cccc(Nc3ccccc3)c2)SC1=S [compound 21],poor anti-bacterial effects
